Values of other authors in US20250169496A1, “USE OF 2-AMINO-3-HYDROXY-3-METHYLBUTYRIC ACID AND/OR 2-AMINO-3-(4-HYDROXYPHENYL) BUTYRIC ACID” (NANJING TIANNONG BIOTECHNOLOGY CO., LTD., priority 2021, published 2025).

System: Lactobacihs arabinosu
Conditions: cited from earlier work

CC(C)(O)[C@H](N)C(=O)O [L-2-amino-3-hydroxy-3-methylbutyric acid]
Inhibition of the synthesis of valine: could inhibit the synthesis of valine
